The values below come from patent US10385024B2, “Compounds and methods for inhibiting NHE-mediated antiport in the treatment of disorders associated with fluid retention or salt overload and gastrointestinal tract disorders” (Ardelyx, Inc., priority 2012, dated 2019).

The structures appear in SMILES notation.

The target in one experiment is T1, human NHE-3 (Homo sapiens, UniProt P48764).
T1 construct: expressed in transfected cells; host or cells: Opossum kidney (OK) cells (ATCC), transfected by electroporation
T1 sequence (P48764 26-834): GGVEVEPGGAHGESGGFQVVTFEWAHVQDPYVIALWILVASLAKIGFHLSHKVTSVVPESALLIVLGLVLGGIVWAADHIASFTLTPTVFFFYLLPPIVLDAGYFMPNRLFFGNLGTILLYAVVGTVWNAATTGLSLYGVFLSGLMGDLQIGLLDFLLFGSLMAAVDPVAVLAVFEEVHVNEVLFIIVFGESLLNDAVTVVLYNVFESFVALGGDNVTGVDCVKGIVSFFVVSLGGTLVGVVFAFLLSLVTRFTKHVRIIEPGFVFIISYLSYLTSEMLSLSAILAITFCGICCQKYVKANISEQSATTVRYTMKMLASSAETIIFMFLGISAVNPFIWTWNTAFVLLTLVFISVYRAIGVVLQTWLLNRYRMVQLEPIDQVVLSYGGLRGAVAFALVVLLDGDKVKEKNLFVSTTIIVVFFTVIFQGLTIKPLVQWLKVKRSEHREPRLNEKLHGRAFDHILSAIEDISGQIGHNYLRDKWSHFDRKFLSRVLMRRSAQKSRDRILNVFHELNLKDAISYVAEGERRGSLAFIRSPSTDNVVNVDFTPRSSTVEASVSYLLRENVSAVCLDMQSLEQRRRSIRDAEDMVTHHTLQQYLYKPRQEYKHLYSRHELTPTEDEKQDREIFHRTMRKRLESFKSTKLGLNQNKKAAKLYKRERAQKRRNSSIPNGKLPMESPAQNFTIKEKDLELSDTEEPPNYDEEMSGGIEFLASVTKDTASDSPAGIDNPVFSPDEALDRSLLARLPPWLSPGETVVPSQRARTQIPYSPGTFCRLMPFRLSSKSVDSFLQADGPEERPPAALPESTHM
The experiment in a line: Cell-based assay of NHE-3 activity (human NHE3 inhibition assay). The note with it: OK cells with human NHE-3 gene, BCECF pH dye, 0-30 μM test compound; for IC50: read-out: Human NHE3 pIC50 (converted). A digest of the protocol:
(§1)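 Opossum kidney cells electroporated with rat or human NHE-3, loaded with 5 μM BCECF-AM in NH4Cl-HEPES pH 7.4 for 30 min at RT, then acidified 10 min in Na+-free choline HEPES. Na+-dependent pH recovery rates from BCECF fluorescence, averaged over ≥2 replicates, gave pIC50.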

For experiment [1], the target named is T2, Rat NHE-3 (Rattus norvegicus, UniProt P26433).
T2 construct: expressed in transfected cells; host or cells: Opossum kidney (OK) cells (ATCC), transfected by electroporation
As to the kind of experiment: Cell-based assay of NHE-3 activity (rat NHE-3 prompt inhibition). Particulars: OK cells with rat NHE-3 gene, compound present during pH recovery; for IC50: read-out: Rat NHE3 pIC50 (prompt) (converted). An outline of the steps:
as §1

Experiment [2] addresses T2, Rat NHE-3. The experiment in a line: Cell-based assay of NHE-3 activity (persistent inhibition, after washout). The note with it: OK cells with rat NHE-3 gene, 60 min incubation, recovery initiated 40 min after compound washout; for IC50: read-out: Rat NHE3 pIC50 (persistent) (converted). A digest of the protocol:
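OK cells transiently expressing rat NHE-3 were exposed to 0-30 μM compound in NaCl-HEPES pH 7.4 for 60 min, then washed free of drug before NH4Cl/BCECF-AM loading and acid-loading in Na+-free choline buffer. Na+-dependent pH recovery rates (mean of ≥2 replicates) gave pIC50.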

Experiment [3] relates to absorption of sodium from the intestinal lumen. The experiment in a line: Inhibition of intestinal sodium absorption (urinary sodium and fecal form). In kind it is in vivo, Sprague-Dawley rats. Particulars: rat, 3 mg/kg oral gavage, urine 16 h post-dose; asterisks = significance vs vehicle (*P<0.05, **P<0.01, ***P<0.001); read-out: uNa (% of vehicle). As for the experimental part: Urinary sodium concentration and fecal form were measured to assess the ability of selected example compounds to inhibit the absorption of sodium from the intestinal lumen. Eight-week old Sprague-Dawley rats were purchased from Charles River Laboratories (Hollister, Calif.), were housed 2 per cage, and acclimated for at least 3 days before study initiation. Animals were fed Harlan Teklad Global 2018 rodent chow (Indianapolis, Ind.) and water ad libitum throughout the study and maintained in a standard light/dark cycle of 6 AM to 6 PM. On the day of the study, between 4 PM and 5 PM, a group of rats (n=6) were dosed via oral gavage with test compound at the dosage indicated or vehicle (water) at a volume of 10 mL/kg. After dose administration animals were placed in individual metabolic cages where they were also fed the same chow in meal form and watered ad libitum. At 16 h post-dose, the urine samples were collected and fecal form was assessed by two independent observations. Fecal forms were scored according to a common scale associated with increasing fecal water to the wettest observation in the cage's collection funnel (1, normal pellet; 2, pellet adhering to sides of collection funnel due to moisture; 3, loss of normal pellet shape; 4, complete loss of shape with a blotting pattern; 5, liquid fecal streams evident). A rat's fecal form score (FFS) was determined by averaging both observational scores for all rats within a group (n=6). In every study the vehicle group average was 1. For urine samples, the volumes were determined gravimetrically and centrifuged at 3,600×g. The supernatants were diluted 100-fold in deionized Milli-Q water then filtered through a 0.2 μm GHP Pall AcroPrep filter plate (Pall Life Sciences, Ann Arbor, Mich.) prior to analysis by ion chromatography. Ten microliters of each filtered extract was injected onto a Dionex ICS-3000 ion chromatograph system (Dionex, Sunnyvale, Calif.). Cations were separated by an isocratic method using 25 mM methanesulfonic acid as the eluent on an IonPac CS12A 2 mm i.d.×250 mm, 8 μm particle size cation exchange column (Dionex). Sodium was quantified using standards prepared from a cation standard mix containing Li^+, Na^+, NH4^+, K^+, Mg^2+, and Ca^2+ (Dionex). The mean mass of sodium urinated for every group in the 16 h period was determined with the vehicle group usually urinating approximately 21 mg sodium. The urine Na (uNa) for rats in the test groups were expressed as a percentage of the vehicle mean and the means were compared to that of the vehicle group by utilizing a one-way analysis of variance coupled with a Dunnett's post hoc test.

T2 sequence (P26433 29-831): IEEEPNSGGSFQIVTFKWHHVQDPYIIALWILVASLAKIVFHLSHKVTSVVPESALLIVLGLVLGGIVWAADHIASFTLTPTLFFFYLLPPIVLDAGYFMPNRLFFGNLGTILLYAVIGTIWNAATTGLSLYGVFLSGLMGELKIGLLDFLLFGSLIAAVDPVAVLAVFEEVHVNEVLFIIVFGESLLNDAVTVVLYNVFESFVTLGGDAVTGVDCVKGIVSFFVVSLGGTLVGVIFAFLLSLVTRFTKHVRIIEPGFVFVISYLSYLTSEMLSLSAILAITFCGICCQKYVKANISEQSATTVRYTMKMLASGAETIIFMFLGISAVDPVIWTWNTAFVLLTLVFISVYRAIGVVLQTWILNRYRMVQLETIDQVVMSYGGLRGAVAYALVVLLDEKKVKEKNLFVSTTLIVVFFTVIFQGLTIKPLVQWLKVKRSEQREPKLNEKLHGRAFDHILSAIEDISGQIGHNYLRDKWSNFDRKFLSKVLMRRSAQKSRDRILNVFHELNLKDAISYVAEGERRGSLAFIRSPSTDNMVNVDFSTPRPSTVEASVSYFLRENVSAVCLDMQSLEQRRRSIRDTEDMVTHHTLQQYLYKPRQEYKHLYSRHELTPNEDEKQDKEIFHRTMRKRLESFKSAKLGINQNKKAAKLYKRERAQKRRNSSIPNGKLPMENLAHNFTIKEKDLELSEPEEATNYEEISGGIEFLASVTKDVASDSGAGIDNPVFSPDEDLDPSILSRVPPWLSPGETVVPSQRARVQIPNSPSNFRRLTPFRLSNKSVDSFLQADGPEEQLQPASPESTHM

As to `CN1Cc2c(Cl)cc(Cl)cc2[C@H](c2cccc(S(=O)(=O)NCCOCCOCCNC(=O)CCC(CCC(=O)NCCOCCOCCNS(=O)(=O)c3cccc([C@@H]4CN(C)Cc5c(Cl)cc(Cl)cc54)c3)(CCC(=O)NCCOCCOCCNS(=O)(=O)c3cccc([C@@H]4CN(C)Cc5c(Cl)cc(Cl)cc54)c3)NS(C)(=O)=O)c2)C1` [Example 5, N^1,N^7-bis(2-(2-(2-(3-((S)-6,8-dichloro-2-methyl-1,2,3,4-tetrahydroisoquinolin-4-yl)phenylsulfonamido)ethoxy)ethoxy)ethyl)-4-(3-(2-(2-(2-(3-((S)-6,8-dichloro-2-methyl-1,2,3,4-tetrahydroisoquinolin-4-yl)phenylsulfonamido)ethoxy)ethoxy)ethylamino)-3-oxopropyl)-4-(methylsulfonamido)heptanediamide], the IC50 is 100 to 10000 nM at human NHE-3, 0.1 to 10 µM at Rat NHE-3 [1] and less than 100 nM on Rat NHE-3 [2]. The response vs control in vivo at 3 mg/kg in experiment [3] is 35 to 75%.

Regarding `CN1Cc2c(Cl)cc(Cl)cc2[C@H](c2cccc(S(=O)(=O)NCCOCCOCCNC(=O)CCC(CCC(=O)NCCOCCOCCNS(=O)(=O)c3cccc([C@@H]4CN(C)Cc5c(Cl)cc(Cl)cc54)c3)(CCC(=O)NCCOCCOCCNS(=O)(=O)c3cccc([C@@H]4CN(C)Cc5c(Cl)cc(Cl)cc54)c3)NC(=O)N(C)C)c2)C1` [Example 25], at human NHE-3, the “Human NHE3 pIC50” value is reported as “B (B NHE3 pIC50 5-7)”. The “Rat NHE3 pIC50 (prompt)” value at Rat NHE-3 [1] is recorded as “B (B NHE3 pIC50 5-7)”. The “Rat NHE3 pIC50 (persistent)” value on Rat NHE-3 [2] is on record as “C (C NHE3 pIC50 > 7)”. Moreover, in experiment [3], the response vs control in vivo at 3 mg/kg was less than 35%.

For `CN1Cc2c(Cl)cc(Cl)cc2[C@H](c2cccc(S(=O)(=O)NCCOCCOCCNC(=O)N(C)CCCN(CCCN(C)C(=O)NCCOCCOCCNS(=O)(=O)c3cccc([C@@H]4CN(C)Cc5c(Cl)cc(Cl)cc54)c3)CCCN(C)C(=O)NCCOCCOCCNS(=O)(=O)c3cccc([C@@H]4CN(C)Cc5c(Cl)cc(Cl)cc54)c3)c2)C1` [Example 47, (S)—N,N′-(15-(1-(3-((S)-6,8-dichloro-2-methyl-1,2,3,4-tetrahydroisoquinolin-4-yl)phenylsulfonamido)-11-methyl-10-oxo-3,6-dioxa-9,11-diazatetradecan-14-yl)-11,19-dimethyl-10,20-dioxo-3,6,24,27-tetraoxa-9,11,15,19,21-pentaazanonacosane-1,29-diyl)bis(3-((S)-6,8-dichloro-2-methyl-1,2,3,4-tetrahydroisoquinolin-4-yl)benzenesulfonamide)], the IC50 was less than 100 nM on human NHE-3, 0.1 to 10 µM at Rat NHE-3 [1] and less than 100 nM at Rat NHE-3 [2]. Further, the response vs control in vivo at 3 mg/kg in experiment [3] was 35 to 75%.

Turning to `CN1Cc2c(Cl)cc(Cl)cc2[C@H](c2cccc(S(=O)(=O)NCCOCCOCCNC(=O)NCCCC(CCCNC(=O)NCCOCCOCCNS(=O)(=O)c3cccc([C@@H]4CN(C)Cc5c(Cl)cc(Cl)cc54)c3)(CCCNC(=O)NCCOCCOCCNS(=O)(=O)c3cccc([C@@H]4CN(C)Cc5c(Cl)cc(Cl)cc54)c3)NC(=O)CCC(=O)O)c2)C1` [Example 63], the “Human NHE3 pIC50” value at human NHE-3 was “C (C NHE3 pIC50 > 7)”. Also, at Rat NHE-3 [1], the “Rat NHE3 pIC50 (prompt)” value was “C (C NHE3 pIC50 > 7)”. The “Rat NHE3 pIC50 (persistent)” value at Rat NHE-3 [2] is “C (C NHE3 pIC50 > 7)”. The response vs control in vivo at 3 mg/kg in experiment [3] lay in the range of 35 to 75%.

Consider `CC(=O)C(CCC(=O)NCCOCCOCCNS(=O)(=O)c1cccc([C@@H]2CN(C)Cc3c(Cl)cc(Cl)cc32)c1)(CCC(=O)NCCOCCOCCNS(=O)(=O)c1cccc([C@@H]2CN(C)Cc3c(Cl)cc(Cl)cc32)c1)CCC(=O)NCCOCCOCCNS(=O)(=O)c1cccc([C@@H]2CN(C)Cc3c(Cl)cc(Cl)cc32)c1` [Example 72, 4-acetyl-N1,N7-bis(2-(2-(2-(3-((S)-6,8-dichloro-2-methyl-1,2,3,4-tetrahydroisoquinolin-4-yl)phenylsulfonamido)ethoxy)ethoxy)ethyl)-4-(3-(2-(2-(2-(3-((S)-6,8-dichloro-2-methyl-1,2,3,4-tetrahydroisoquinolin-4-yl)phenylsulfonamido)ethoxy)ethoxy)ethylamino)-3-oxopropyl)heptanediamide], for which the IC50 is 100 to 10000 nM at human NHE-3, 0.1 to 10 µM on Rat NHE-3 [1] and less than 100 nM on Rat NHE-3 [2]. Moreover, the response vs control in vivo at 3 mg/kg in experiment [3] fell in the range of 35 to 75%.

For `CN1Cc2c(Cl)cc(Cl)cc2C(c2cccc(S(=O)(=O)NCCOCCOCCNC(=O)CCC(CCC(=O)NCCOCCOCCNS(=O)(=O)c3cccc(C4CN(C)Cc5c(Cl)cc(Cl)cc54)c3)(CCC(=O)NCCOCCOCCNS(=O)(=O)c3cccc(C4CN(C)Cc5c(Cl)cc(Cl)cc54)c3)NC(=O)C3CCCCC3C(=O)O)c2)C1` (centres unmarked) [Example 28], the “Human NHE3 pIC50” value on human NHE-3 was “C (C NHE3 pIC50 > 7)”. In addition, the “Rat NHE3 pIC50 (prompt)” value at Rat NHE-3 [1] is reported as “B (B NHE3 pIC50 5-7)”. Moreover, the “Rat NHE3 pIC50 (persistent)” value at Rat NHE-3 [2] is listed as “C (C NHE3 pIC50 > 7)”. For the same compound, the response vs control in vivo at 3 mg/kg in experiment [3] fell in the range of 35 to 75%.

On to `CCN(CCOCCOCCNC(=O)NCCCN(CCCNC(=O)NCCOCCOCCN(CC)S(=O)(=O)c1cccc([C@@H]2CN(C)Cc3c(Cl)cc(Cl)cc32)c1)CCCNC(=O)NCCOCCOCCN(CC)S(=O)(=O)c1cccc([C@@H]2CN(C)Cc3c(Cl)cc(Cl)cc32)c1)S(=O)(=O)c1cccc([C@@H]2CN(C)Cc3c(Cl)cc(Cl)cc32)c1` [Example 57], for which the “Human NHE3 pIC50” value on human NHE-3 is recorded as “C (C NHE3 pIC50 > 7)”. Moreover, the “Rat NHE3 pIC50 (prompt)” value at Rat NHE-3 [1] is “B (B NHE3 pIC50 5-7)”. For the same compound, the “Rat NHE3 pIC50 (persistent)” value at Rat NHE-3 [2] is recorded as “C (C NHE3 pIC50 > 7)”. For the same compound, the response vs control in vivo at 3 mg/kg in experiment [3] was 35 to 75%.

In the case of `CN1Cc2c(Cl)cc(Cl)cc2[C@H](c2cccc(S(=O)(=O)NCCOCCOCCNC(=O)CCC(CCC(=O)NCCOCCOCCNS(=O)(=O)c3cccc([C@@H]4CN(C)Cc5c(Cl)cc(Cl)cc54)c3)(CCC(=O)NCCOCCOCCNS(=O)(=O)c3cccc([C@@H]4CN(C)Cc5c(Cl)cc(Cl)cc54)c3)NC(=O)NC(CO)CO)c2)C1` [Example 34], the “Human NHE3 pIC50” value on human NHE-3 was “C (C NHE3 pIC50 > 7)”. Moreover, at Rat NHE-3 [1], the “Rat NHE3 pIC50 (prompt)” value is “C (C NHE3 pIC50 > 7)”. In addition, at Rat NHE-3 [2], the “Rat NHE3 pIC50 (persistent)” value is reported as “C (C NHE3 pIC50 > 7)”. The response vs control in vivo at 3 mg/kg in experiment [3] was less than 35%.
